In patent US6358885B1, “Substituted phenylheterocyclic herbicides” (Mississippi State University, priority 1992, dated 2002):

Experiments:
cheatgrass = test: Test B preemergence/postemergence greenhouse plant response rating 0 to 10; format: in vivo, Bromus secalinus; settings: for Plant response rating, Cheatgrass: 0 to 10 scale
Method in brief: (§1)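 Both application timings were run together: seeds got compound preemergence, and established seedlings (two to eighteen cm) got it postemergence. Non-phytotoxic solvent carried the chemical. Ratings are visual, versus controls, at twelve to sixteen days.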

corn = test: as above; format: in vivo, Zea mays; settings: for Plant response rating, Corn: 0 to 10 scale
Method in brief: as §1

cotton [1] = test: as above; format: in vivo, Gossypium hirsutum; settings: for Plant response rating, Cotton: 0 to 10 scale
Method in brief: as §1

lambsquarters [2] = test: as above; format: in vivo, Chenopodium album; settings: for Plant response rating, Lambsquarter: 0 to 10 scale
Method in brief: as §1

rice = test: as above; format: in vivo, Oryza sativa; settings: for Plant response rating, Rice: 0 to 10 scale
Method in brief: as §1

wheat = test: as above; format: in vivo, Triticum aestivum; settings: for Plant response rating, Wheat: 0 to 10 scale
Method in brief: as §1

wild oat = test: as above; format: in vivo, Avena fatua; settings: for Plant response rating, Wild oat: 0 to 10 scale
Method in brief: as §1

bedstraw = test: Test C preemergence/postemergence greenhouse plant response rating 0 to 100; format: in vivo, Galium aparine; settings: for Plant response rating, Bedstraw: 0 to 100 scale
Method in brief: (§2)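 Compounds in non-phytotoxic solvent applied preemergence to sandy loam one day after planting, postemergence at the 1–4 leaf stage, or to ~2.5 cm floodwater over silt loam.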

cotton [3] = test: as above; format: in vivo, Gossypium hirsutum; settings: for Plant response rating, Cotton: 0 to 100 scale
Method in brief: as §2

crabgrass = test: as above; format: in vivo, Digitaria sanguinalis; settings: for Plant response rating, Crabgrass: 0 to 100 scale
Method in brief: as §2

downy brome = test: as above; format: in vivo, Bromus tectorum; settings: for Plant response rating Downy Brome: 0 to 100 scale
Method in brief: as §2

giant foxtail = test: as above; format: in vivo, Setaria faberii; settings: for Plant response rating, Giant foxtail: 0 to 100 scale
Method in brief: as §2

lambsquarters [4] = test: as above; format: in vivo, Chenopodium album; settings: for Plant response rating Lambsquarters: 0 to 100 scale
Method in brief: as §2

sorghum = test: as above; format: in vivo, Sorghum bicolor; settings: for Plant response rating, Sorghum: 0 to 100 scale
Method in brief: as §2

sugar beet = test: as above; format: in vivo, Beta vulgaris; settings: for Plant response rating, Sugar beet: 0 to 100 scale
Method in brief: as §2

velvetleaf = test: as above; format: in vivo, Abutilon theophrasti; settings: for Plant response rating, Velvetleaf: 0 to 100 scale
Method in brief: as §2

duck salad = test: Test C flood test plant response rating 0 to 100; format: in vivo, Heteranthera limosa; settings: for Plant response rating Duck salad: flood test species listed under POSTEMERGENCE, 0 to 100 scale
Method in brief: as §2

barnyardgrass = test: Test C flood test plant response rating 0 to 100; format: in vivo, Echinochloa crus-galli; settings: for Plant response rating Barnyardgrass 2: flood test species listed under POSTEMERGENCE, 0 to 100 scale
Method in brief: as §2

[5] = POSTEMERGENCE section, flood test, Rate 4 g/ha
[6] = Rate 16 g/ha, under POSTEMERGENCE head (flood test species)

Structure (SMILES): C#CC(C)Oc1cc(-c2nn3c(c2Br)CCCC3)c(F)cc1Cl (centres unmarked) [Compound 66]
- Plant response rating, Cheatgrass (cheatgrass; POSTEMERGENCE, Rate 50 g/ha): 3
- Plant response rating, Cheatgrass (cheatgrass; PREEMERGENCE, Rate 50 g/ha): 1
- Plant response rating (0 to 10 scale), Cheatgrass (cheatgrass; PREEMERGENCE, Rate 200 g/ha): 6
- Plant response rating, Cheatgrass (cheatgrass; Rate 200 g/ha, POSTEMERGENCE): 6
- Plant response rating, Corn (corn; POSTEMERGENCE, Rate 50 g/ha): 3
- Plant response rating, Corn (corn; PREEMERGENCE, Rate 50 g/ha): 0
- Plant response rating (0 to 10 scale), Corn (corn; PREEMERGENCE, Rate 200 g/ha): 0
- Plant response rating, Corn (corn; Rate 200 g/ha, POSTEMERGENCE): 3
- Plant response rating, Cotton (cotton [1]; POSTEMERGENCE, Rate 50 g/ha): 10
- Plant response rating, Cotton (cotton [1]; PREEMERGENCE, Rate 50 g/ha): 0
- Plant response rating (0 to 10 scale), Cotton (cotton [1]; PREEMERGENCE, Rate 200 g/ha): 0
- Plant response rating, Cotton (cotton [1]; Rate 200 g/ha, POSTEMERGENCE): 10
- Plant response rating, Lambsquarter (lambsquarters [2]; POSTEMERGENCE, Rate 50 g/ha): 10
- Plant response rating, Lambsquarter (lambsquarters [2]; PREEMERGENCE, Rate 50 g/ha): 9
- Plant response rating (0 to 10 scale), Lambsquarter (lambsquarters [2]; PREEMERGENCE, Rate 200 g/ha): 10
- Plant response rating, Lambsquarter (lambsquarters [2]; Rate 200 g/ha, POSTEMERGENCE): 10
- Plant response rating, Rice (rice; POSTEMERGENCE, Rate 50 g/ha): 5
- Plant response rating, Rice (rice; PREEMERGENCE, Rate 50 g/ha): 0
- Plant response rating (0 to 10 scale), Rice (rice; PREEMERGENCE, Rate 200 g/ha): 0
- Plant response rating, Rice (rice; Rate 200 g/ha, POSTEMERGENCE): 6
- Plant response rating, Wheat (wheat; POSTEMERGENCE, Rate 50 g/ha): 5
- Plant response rating, Wheat (wheat; PREEMERGENCE, Rate 50 g/ha): 0
- Plant response rating (0 to 10 scale), Wheat (wheat; PREEMERGENCE, Rate 200 g/ha): 3
- Plant response rating, Wheat (wheat; Rate 200 g/ha, POSTEMERGENCE): 5
- Plant response rating, Wild oat (wild oat; POSTEMERGENCE, Rate 50 g/ha): 5
- Plant response rating, Wild oat (wild oat; PREEMERGENCE, Rate 50 g/ha): 2
- Plant response rating (0 to 10 scale), Wild oat (wild oat; PREEMERGENCE, Rate 200 g/ha): 5
- Plant response rating, Wild oat (wild oat; Rate 200 g/ha, POSTEMERGENCE): 6
- Plant response rating, Bedstraw (bedstraw; POSTEMERGENCE, 62 g/ha): 100
- Plant response rating, Bedstraw (bedstraw; POSTEMERGENCE, 250 g/ha): 100
- Plant response rating (0 to 100), Bedstraw (bedstraw; POSTEMERGENCE, Rate 4 g/ha): 60
- Plant response rating, Bedstraw (bedstraw; PREEMERGENCE, 62 g/ha): 80
- Plant response rating, Bedstraw (bedstraw; PREEMERGENCE, 250 g/ha): 90
- Plant response rating (0 to 100), Bedstraw (bedstraw; PREEMERGENCE, Rate 4 g/ha): 0
- Plant response rating (0 to 100), Bedstraw (bedstraw; Rate 16 g/ha, POSTEMERGENCE): 85
- Plant response rating (0 to 100), Bedstraw (bedstraw; Rate 16 g/ha, PREEMERGENCE): 20
- Plant response rating, Cotton (cotton [3]; POSTEMERGENCE, 62 g/ha): 100
- Plant response rating, Cotton (cotton [3]; POSTEMERGENCE, 250 g/ha): 100
- Plant response rating (0 to 100), Cotton (cotton [3]; POSTEMERGENCE, Rate 4 g/ha): 70
- Plant response rating, Cotton (cotton [3]; PREEMERGENCE, 62 g/ha): 40
- Plant response rating, Cotton (cotton [3]; PREEMERGENCE, 250 g/ha): 90
- Plant response rating (0 to 100), Cotton (cotton [3]; PREEMERGENCE, Rate 4 g/ha): 0
- Plant response rating (0 to 100), Cotton (cotton [3]; Rate 16 g/ha, POSTEMERGENCE): 85
- Plant response rating (0 to 100), Cotton (cotton [3]; Rate 16 g/ha, PREEMERGENCE): 0
- Plant response rating, Crabgrass (crabgrass; POSTEMERGENCE, 62 g/ha): 40
- Plant response rating, Crabgrass (crabgrass; POSTEMERGENCE, 250 g/ha): 50
- Plant response rating (0 to 100), Crabgrass (crabgrass; POSTEMERGENCE, Rate 4 g/ha): 10
- Plant response rating, Crabgrass (crabgrass; PREEMERGENCE, 62 g/ha): 50
- Plant response rating, Crabgrass (crabgrass; PREEMERGENCE, 250 g/ha): 100
- Plant response rating (0 to 100), Crabgrass (crabgrass; PREEMERGENCE, Rate 4 g/ha): 0
- Plant response rating (0 to 100), Crabgrass (crabgrass; Rate 16 g/ha, POSTEMERGENCE): 20
- Plant response rating (0 to 100), Crabgrass (crabgrass; Rate 16 g/ha, PREEMERGENCE): 0
- Plant response rating Downy Brome (downy brome; POSTEMERGENCE, 62 g/ha): 60
- Plant response rating Downy Brome (downy brome; POSTEMERGENCE, 250 g/ha): 80
- Plant response rating (0 to 100), Downy Brome (downy brome; POSTEMERGENCE, Rate 4 g/ha): 20
- Plant response rating Downy Brome (downy brome; PREEMERGENCE, 62 g/ha): 30
- Plant response rating Downy Brome (downy brome; PREEMERGENCE, 250 g/ha): 70
- Plant response rating (0 to 100), Downy Brome (downy brome; PREEMERGENCE, Rate 4 g/ha): 0
- Plant response rating (0 to 100), Downy Brome (downy brome; Rate 16 g/ha, POSTEMERGENCE): 40
- Plant response rating (0 to 100), Downy Brome (downy brome; Rate 16 g/ha, PREEMERGENCE): 0
- Plant response rating, Giant foxtail (giant foxtail; POSTEMERGENCE, 62 g/ha): 70
- Plant response rating, Giant foxtail (giant foxtail; POSTEMERGENCE, 250 g/ha): 90
- Plant response rating (0 to 100), Giant foxtail (giant foxtail; POSTEMERGENCE, Rate 4 g/ha): 30
- Plant response rating, Giant foxtail (giant foxtail; PREEMERGENCE, 62 g/ha): 20
- Plant response rating, Giant foxtail (giant foxtail; PREEMERGENCE, 250 g/ha): 100
- Plant response rating (0 to 100), Giant foxtail (giant foxtail; PREEMERGENCE, Rate 4 g/ha): 0
- Plant response rating (0 to 100), Giant foxtail (giant foxtail; Rate 16 g/ha, POSTEMERGENCE): 50
- Plant response rating (0 to 100), Giant foxtail (giant foxtail; Rate 16 g/ha, PREEMERGENCE): 0
- Plant response rating Lambsquarters (lambsquarters [4]; POSTEMERGENCE, 62 g/ha): 100
- Plant response rating Lambsquarters (lambsquarters [4]; POSTEMERGENCE, 250 g/ha): 100
- Plant response rating (0 to 100), Lambsquarters (lambsquarters [4]; POSTEMERGENCE, Rate 4 g/ha): 30
- Plant response rating Lambsquarters (lambsquarters [4]; PREEMERGENCE, 62 g/ha): 100
- Plant response rating Lambsquarters (lambsquarters [4]; PREEMERGENCE, 250 g/ha): 100
- Plant response rating (0 to 100), Lambsquarters (lambsquarters [4]; PREEMERGENCE, Rate 4 g/ha): 0
- Plant response rating (0 to 100), Lambsquarters (lambsquarters [4]; Rate 16 g/ha, POSTEMERGENCE): 80
- Plant response rating (0 to 100), Lambsquarters (lambsquarters [4]; Rate 16 g/ha, PREEMERGENCE): 70
- Plant response rating, Sorghum (sorghum; POSTEMERGENCE, 62 g/ha): 50
- Plant response rating, Sorghum (sorghum; POSTEMERGENCE, 250 g/ha): 60
- Plant response rating (0 to 100), Sorghum (sorghum; POSTEMERGENCE, Rate 4 g/ha): 30
- Plant response rating, Sorghum (sorghum; PREEMERGENCE, 250 g/ha): 30
- Plant response rating (0 to 100), Sorghum (sorghum; PREEMERGENCE, Rate 4 g/ha): 0
- Plant response rating (0 to 100), Sorghum (sorghum; Rate 16 g/ha, POSTEMERGENCE): 40
- Plant response rating (0 to 100), Sorghum (sorghum; Rate 16 g/ha, PREEMERGENCE): 0
- Plant response rating, Sugar beet (sugar beet; POSTEMERGENCE, 62 g/ha): 100
- Plant response rating, Sugar beet (sugar beet; POSTEMERGENCE, 250 g/ha): 100
- Plant response rating (0 to 100), Sugar beet (sugar beet; POSTEMERGENCE, Rate 4 g/ha): 80
- Plant response rating, Sugar beet (sugar beet; PREEMERGENCE, 250 g/ha): 100
- Plant response rating (0 to 100), Sugar beet (sugar beet; PREEMERGENCE, Rate 4 g/ha): 0
- Plant response rating (0 to 100), Sugar beet (sugar beet; Rate 16 g/ha, POSTEMERGENCE): 100
- Plant response rating (0 to 100), Sugar beet (sugar beet; Rate 16 g/ha, PREEMERGENCE): 50
- Plant response rating, Velvetleaf (velvetleaf; POSTEMERGENCE, 62 g/ha): 75
- Plant response rating, Velvetleaf (velvetleaf; POSTEMERGENCE, 250 g/ha): 100
- Plant response rating (0 to 100), Velvetleaf (velvetleaf; POSTEMERGENCE, Rate 4 g/ha): 60
- Plant response rating, Velvetleaf (velvetleaf; PREEMERGENCE, 250 g/ha): 100
- Plant response rating (0 to 100), Velvetleaf (velvetleaf; Rate 16 g/ha, POSTEMERGENCE): 65
- Plant response rating (0 to 100), Velvetleaf (velvetleaf; Rate 16 g/ha, PREEMERGENCE): 70
- Plant response rating (0 to 100), Duck salad (duck salad; [5]): 0
- Plant response rating (0 to 100), Duck salad (duck salad; [6]): 30
- Plant response rating Duck salad (duck salad; 62 g/ha): 75
- Plant response rating Duck salad (duck salad; 250 g/ha): 90
- Plant response rating (0 to 100), Barnyardgrass 2 (barnyardgrass; [5]): 10
- Plant response rating (0 to 100), Barnyardgrass 2 (barnyardgrass; [6]): 90
- Plant response rating Barnyardgrass 2 (barnyardgrass; 62 g/ha): 100
- Plant response rating Barnyardgrass 2 (barnyardgrass; 250 g/ha): 100
